Measured values published in BindingDB's records for doi:10.1016/j.bmcl.2016.09.067 (Amgen, 2016).

Columns and labels:
[1] = molecular target: Serine/threonine-protein kinase pim-2 (Homo sapiens, UniProt Q9P1W9); assay: Inhibition of recombinant Pim2 (unknown origin) by electrochemiluminescence assay
[2] = molecular target: Serine/threonine-protein kinase pim-1 (Homo sapiens, UniProt P11309); assay: Inhibition of recombinant Pim1 (unknown origin) by electrochemiluminescence assay
Serine/threonine-protein kinase pim-1, sequence (P11309 whole entry): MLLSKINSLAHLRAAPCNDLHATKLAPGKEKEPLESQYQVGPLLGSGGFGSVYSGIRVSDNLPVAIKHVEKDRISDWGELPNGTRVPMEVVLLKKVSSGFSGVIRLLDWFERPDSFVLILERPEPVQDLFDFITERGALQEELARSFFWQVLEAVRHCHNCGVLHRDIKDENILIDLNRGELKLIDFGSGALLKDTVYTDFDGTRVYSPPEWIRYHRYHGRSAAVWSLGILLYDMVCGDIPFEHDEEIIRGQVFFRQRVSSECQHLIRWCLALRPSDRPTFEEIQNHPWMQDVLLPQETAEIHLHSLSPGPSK

Serine/threonine-protein kinase pim-2, sequence (Q9P1W9 whole entry): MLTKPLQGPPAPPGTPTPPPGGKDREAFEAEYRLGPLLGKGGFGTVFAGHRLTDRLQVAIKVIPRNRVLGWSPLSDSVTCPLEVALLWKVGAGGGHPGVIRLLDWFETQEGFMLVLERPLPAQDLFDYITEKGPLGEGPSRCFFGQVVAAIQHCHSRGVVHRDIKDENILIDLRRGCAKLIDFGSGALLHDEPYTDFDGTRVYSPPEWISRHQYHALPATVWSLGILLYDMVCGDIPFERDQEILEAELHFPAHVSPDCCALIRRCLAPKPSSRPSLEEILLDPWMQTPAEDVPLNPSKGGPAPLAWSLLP

IC50 [1] [nM]	IC50 [2] [nM]	Compound
> 1000	> 1000	N[C@H]1CCCN(c2cnccc2Nc2ncc3ccc(-c4c(F)cccc4F)nn23)C1 [US9187486, 80]
> 1000	–	N[C@H]1CCN(c2ccncc2Nc2ncc3ccc(-c4c(F)cccc4F)nn23)C1 [US9187486, 13]
